Measured values published in patent publication US20030091533A1, “Regulation of mononuclear phagocyte stimulation” (priority 2001, published 2003).

B1: IFN-γ: Interferon gamma, primes mononuclear phagocytes, 200 U/ml (protein, UniProt P01579 24-161, looked up)
Interferon gamma: QDPYVKEAENLKKYFNAGHSDVADNGTLFLGILKNWKEESDRKIMQSQIVSFYFKLFKNFKDDQSIQKSVETIKEDMNVKFFNSNKKKRDDFEKLTNYSVTDLNVQRKAIHELIQVMAELSPAAKTGKRKRSQMLFRG

Tests used:
Format in all cases: cell-based, human
PMA-stimulated PBM = test: Extracellular O2- release, SOD-inhibitable reduction of ferricytochrome c; settings: for effect on the basal oxidative burst: incubation for 24 hour, PBM without stimulation
Method: Extracellular release of O2-derived radicals was evaluated by the SOD-inhibitable reduction of ferricytochrome c, as previously described (Pick, Methods in Enzymology, 132:407-421 (1986)) as described infra.
Extracellular release of O2-derived radicals was evaluated by the SOD-inhibitable reduction of ferricytochrome c, as previously described (Pick, Methods in Enzymology, 132:407-421 (1986)). Briefly, after incubation with IL-9 and IL-4 (20 ng/ml) for 1 hour, 4 hour 24 hour and 96 hour, cells were washed three times in Hank's balanced salt solution without phenol red (HBSS) to remove the phenol red-containing medium and incubated at 37° C. with HBSS containing 160 μM ferricytochrome c (plus 300 IU/ml SOD as control for each condition), and concomittantly with 100 ng/ml PMA when indicated. Optical density (OD) at 550 nm was then recorded in a plate spectrometer (Titertek Multiscan Plus MKII, Labsystems, Finland) after 60 min. The released amount of superoxide anion (O2^−) was deduced from the absorbance values at 550 nm (after subtraction of control values with SOD) using the cytochrome c extinction coefficient of 21×10^3 M^−1 cm^−1 (See Massey, Biochim Biophys Acta, 34: 255(1959)). Results were expressed as nmoles O2^− per 10^6 cells per hour (FIG. 1).

LPS-stimulated PBM [1] = test: TNF-α release, cytotoxic bioassay with WEHI 164 clone 13 cells, PBM; settings: preincubated 24 hour with cytokine (IL-9, IL-4 20 ng/ml, IFN-γ 200 U/ml) or medium, LPS 1 μg/ml 20 h; without LPS 10.2±4.1
Method: (§1) PBM and AM obtained as described infra (1×10^6 PBM, 0.5×10^6 AM) were preincubated for 24 hour with cytokines, IL-4, IL-9 (20 ng/ml) and IFN-γ (200 U/ml) before the stimulation by LPS (1 μg/ml) for 20 h. Supernatants were harvested and frozen at −20° C. until cytokine titration. TNF-α release was determined in supernatants by a cytotoxic bioassay using WEHI 164 clone 13 target cells (Espevik and Nissen-Meyer, J. Immunol. Methods, 95:99-105 (1986) (incorporated herein by reference)), while IL-8 was quantitated in the same supernatants by ELISA. FIG. 5 depicts the effects of IL-9, IL-4, and IFN-γ on the release of TNFα (A) and IL-8 (B) by LPS-stimulated PBM and AM. Data are means±SEM (n=3). *P<0.001 compared with unstimulated cells; **P<0.05 compared with cells preincubated with medium.
(§2) Cells (1×10^6 PBM or 0.5×10^6 AM/well) were distributed in 24-well plates (Falcon), preincubated in cRPMI for 24 hours at 37° C., 5% CO2 with cytokines (IL-9, IL-4 (20 ng/ml) and IFN-γ (200 U/ml)) and stimulated for 20 hours with 1 μg/ml LPS without removing cytokines. Supernatants were harvested and frozen at −20° C. until cytokine titration. Release of TNF-α was quantified by a cytotoxicity bioassay using WEHI 164 cells clone 13, as previously described (Espevik and Nissen-Meyer, J. Immunol. Methods, 95:99-105 (1986) incorporated herein by reference), using rhTNF-α from Boehringer as a standard. IL-8, IL-10 and TGF-β1 concentrations were determined by ELISA. A kit from CLB (Amsterdam, The Netherlands) was used for IL-10 quantitation, following the manufacturer's protocol. A kit from Biosource allowed to determine TGF-β1 after the release from its latent complexes by a treatment of supernatants with ethanol acid (‘acid-treated supernatants’); TGF-P 1 was also assessed in crude supernatants (‘untreated supernatants’). […] The reaction was then developed in 0.03% v/v H2O2 substrate and 0.42 mM 3,3′,5,5′-tetramethylbenzidine as chromogen in 100 mM sodium acetate/citric acid buffer (pH 4.9), stopped with 2 M H2SO4, and read in a plate spectrometer at 450 nm. […]

LPS-stimulated PBM [2] = test: IL-8 release by ELISA, PBM; settings: for effect on IL-8 release by LPS-stimulated PBM: preincubated 24 hour, LPS 20 hour
Method: as §1, §2

LPS-stimulated PBM [3] = test: IL-10 release by ELISA, PBM; settings: for IL-10 release by LPS-stimulated PBM: preincubated 24 hour, LPS 20 h
Method: (§3) FIG. 6 depicts the effect of IL-9, IL-4 and IFN-γ on the release of IL-10 (A) and TGF-β1 (B) by LPS-stimulated PBM and AM cultured under the same conditions as described in FIG. 5 Example I. D. TGF-β1 was determined by ELISA in crude supernatants (untreated supernatants) and in ethanol-acid (acid-treated) supernatants, using a kit from Biosource for determining TGF-β1 release from its latent complexes. An ELISA kit from CLB (Amsterdam, The Netherlands) was used to determine IL-10 following the manufacturer's protocol. […] Data are means±SEM (n=3). *P<0.05 compared with unstimulated cells; **P<0.05 compared with cells preincubated with medium.
as §2, with “supernatants’). To assay for IL-8, 96-well plates were coated overnight at 4° C. with 4 μg/ml anti-hIL-8 mAb (Sigma, clone 6217.11) in 100 mM sodium carbonate buffer (pH 9.6).” for “supernatants’).”

LPS-stimulated PBM [4] = test: TGF-β1 release by ELISA, PBM; settings: for potentiation of TGF-β1 production by LPS-stimulated PBM: preincubated 24 hour
Method: as §3
Cells (1×10^6 PBM or 0.5×10^6 AM/well) were distributed in 24-well plates (Falcon), preincubated in cRPMI for 24 hours at 37° C., 5% CO2 with cytokines (IL-9, IL-4 (20 ng/ml) and IFN-γ (200 U/ml)) and stimulated for 20 hours with 1 μg/ml LPS without removing cytokines. Supernatants were harvested and frozen at −20° C. until cytokine titration. Release of TNF-α was quantified by a cytotoxicity bioassay using WEHI 164 cells clone 13, as previously described (Espevik and Nissen-Meyer, J. Immunol. Methods, 95:99-105 (1986) incorporated herein by reference), using rhTNF-α from Boehringer as a standard. IL-8, IL-10 and TGF-β1 concentrations were determined by ELISA. A kit from CLB (Amsterdam, The Netherlands) was used for IL-10 quantitation, following the manufacturer's protocol. A kit from Biosource allowed to determine TGF-β1 after the release from its latent complexes by a treatment of supernatants with ethanol acid (‘acid-treated supernatants’); TGF-P 1 was also assessed in crude supernatants (‘untreated supernatants’). To assay for IL-8, 96-well plates were coated overnight at 4° C. with 4 μg/ml anti-hIL-8 mAb (Sigma, clone 6217.11) in 100 mM sodium carbonate buffer (pH 9.6). After washings in PBS containing 0.1% v/v Tween 20 and blocking for 1 hour at 37° C. with 1% w/v BSA in the same buffer, rhIL-8 standards (Biosource International) and supernatants were incubated for 2 hour at 37° C. Plates were then incubated with 20 ng/ml biotinylated polyclonal anti-hIL-8 Ab (R§D Systems) in blocking buffer and, after washings, with HRP-conjugated streptavidin (Sigma). The reaction was then developed in 0.03% v/v H2O2 substrate and 0.42 mM 3,3′,5,5′-tetramethylbenzidine as chromogen in 100 mM sodium acetate/citric acid buffer (pH 4.9), stopped with 2 M H2SO4, and read in a plate spectrometer at 450 nm. The sensitivity of the TNF-α bioassay was 0.2 pg/ml, and that of IL-8, IL-10, and TGF-β1 immunoassays 10 pg/ml, 2 pg/ml, and 2 pg/ml, respectively. All supernatants were assayed in duplicate.

Row | Molecule | effect on O2^− release by PMA-stimulated PBM (PMA-stimulated PBM; 96 hour of preincubation) | effect on the basal oxidative burst (PMA-stimulated PBM) | O2^− release by PMA-stimulated PBM (PMA-stimulated PBM; preincubation 24 hour, 20 ng/ml, PMA 100 ng/ml, medium-preincubated cells 40.1±2.5) | effect on O2^− release by PMA-stimulated PBM (PMA-stimulated PBM; shorter preincubation periods (1 hour, 4 hour)) | TNF-α release by LPS-stimulated PBM (LPS-stimulated PBM [1]) [pg/mL] | effect on IL-8 release by LPS-stimulated PBM (LPS-stimulated PBM [2]) | LPS-induced IL-10 release by PBM (LPS-stimulated PBM [3]; preincubated 24 hour 20 ng/ml, LPS 1 μg/ml 20 h, medium-preincubated 217.8±25.8) [pg/mL] | production of TGF-β1 by LPS-stimulated PBM (LPS-stimulated PBM [4]; acid-treated supernatants, preincubated 24 hour 20 ng/ml, LPS 20 h, medium-preincubated 586±64) [pg/mL] | modulation of TGF-β1 in unstimulated PBM (LPS-stimulated PBM [4]; without LPS) | effect on O2^− release by PMA-stimulated PBM (PMA-stimulated PBM; 24 hour of preincubation) | IL-8 release by LPS-stimulated PBM (LPS-stimulated PBM [2]; preincubated 24 hour with cytokine or medium, LPS 1 μg/ml 20 hour, without LPS 10.0±2.4) [ng/mL] | IL-10 release by LPS-stimulated PBM (LPS-stimulated PBM [3]) | potentiation of TGF-β1 production by LPS-stimulated PBM (LPS-stimulated PBM [4]; LPS 20 h)
1 | IL-9: Human IL-9 purified from SF9 insect cell cultures infected with recombinant baculovirus | not further increased | little effect | 23.2±0.8 nmoles 02-per 10^6 cells. h^−1 | not significant | 84.2 ± 17.2 | no significant modulation | 119.7 ± 8.7 | 1687 ± 94 | no modulation |  |  |  | 
2 | IL-4: Th2 cytokine interleukin-4 used as comparator, 20 ng/ml | significantly increased | little effect |  |  | 72.5 ± 21.5 |  |  |  |  | same inhibitory effect | 20.1 ± 2.1 | inhibited | not observed
3 | B1 |  |  |  |  | 289.8 ± 12.9 | no significant modulation |  |  |  | slightly up regulated |  | decreased | not observed
